# According to US20200038513A1, “MODULATORS OF FAK PROTEOLYSIS AND ASSOCIATED METHODS OF USE” (ARVINAS OPERATIONS, INC., priority 2018, published 2020):
# Tested on: MDA-MB-231 cells
# Experiment: RPPA (reverse phase protein array)
# Type: cell-based, human
# Details: 500nM
# Method: RPPA analysis was performed by MD Anderson Cancer Center RPPA core facility.
# Examination of the Molecular Signaling Events) and/or Downstream Pathways Responsible for the Migration and Invasion Effects Observed by Exemplary Compound Treatment. To pinpoint these observations to a molecular signaling event or specific downstream pathway, reverse phase protein array (RPPA) analysis was performed (Table 4).
compound,measurement,value
"Cc1ncsc1-c1ccc(CNC(=O)[C@@H]2C[C@@H](O)CN2C(=O)[C@@H](NC(=O)CCOCCOc2ccc(Nc3ncc(C(F)(F)F)c(NCc4cccc(N(C)S(C)(=O)=O)c4)n3)cc2)C(C)(C)C)cc1 [Compound 102, (2S,4R)-1-((S)-3,3-dimethyl-2-(3-(2-(4-((4-((3-(N-methylmethylsulfonamido)benzyl)amino)-5-(trifluoromethyl)pyrimidin-2-yl)amino)phenoxy)ethoxy)propanamido)butanoyl)-4-hydroxy-N-(4-(4-methylthiazol-5-yl)benzyl)pyrrolidine-2-carboxamide]","rel. Protein level, Mnk1",97.2%
same,"rel. Protein level, Myosin-11",101.0%
same,"rel. Protein level, Myosin-IIa_pS1943",113.7%
same,"rel. Protein level, Myt1",93.2%
same,"rel. Protein level, N-Cadherin",104.0%
same,"rel. Protein level, N-Ras",98.6%
same,"rel. Protein level, NAPSIN-A",99.4%
same,"rel. Protein level, NDRG1_pT346",118.1%
same,"rel. Protein level, NDUFB4",100.5%
same,"rel. Protein level, NF-kB-p65_pS536",108.3%
same,"rel. Protein level, Notch1",105.8%
same,"rel. Protein level, Notch3",112.1%
same,"rel. Protein level, Oct-4",102.3%
same,"rel. Protein level, P-Cadherin",108.3%
same,"rel. Protein level, PAI-1",106.1%
same,"rel. Protein level, PAICS",98.1%
same,"rel. Protein level, PAK1",106.0%
same,"rel. Protein level, PAK4",95.1%
same,"rel. Protein level, PAR",158.2%
same,"rel. Protein level, PARP",104.5%
same,"rel. Protein level, PCNA",97.5%
same,"rel. Protein level, PD-1",98.8%
same,"rel. Protein level, PD-L1",95.8%
same,"rel. Protein level, PDGFR-b",124.5%
same,"rel. Protein level, PDHK1",102.2%
same,"rel. Protein level, PDK1",99.6%
same,"rel. Protein level, PDK1_pS241",103.2%
same,"rel. Protein level, PEA-15",97.9%
same,"rel. Protein level, PEA-15_pS116",98.0%
same,"rel. Protein level, PI3K-p85",100.1%
same,"rel. Protein level, PI3K-p110-a",107.4%
same,"rel. Protein level, PI3K-p110-b",94.8%
same,"rel. Protein level, PKA-a",105.1%
same,"rel. Protein level, PKC-b-II_pS660",93.7%
same,"rel. Protein level, PKC-delta_pS664",98.8%
same,"rel. Protein level, PKCa",113.3%
same,"rel. Protein level, PKM2",105.8%
same,"rel. Protein level, PLC-gamma2_pY759",97.9%
same,"rel. Protein level, PLK1",95.0%
same,"rel. Protein level, PMS2",96.4%
same,"rel. Protein level, PR",96.8%
same,"rel. Protein level, PRAS40",104.0%
same,"rel. Protein level, PRAS40_pT246",92.3%
same,"rel. Protein level, PREX1",102.5%
same,"rel. Protein level, PTEN",124.6%
same,"rel. Protein level, Paxillin",91.8%
same,"rel. Protein level, Pdcd4",120.2%
same,"rel. Protein level, Porin",97.8%
same,"rel. Protein level, RBM15",105.1%
same,"rel. Protein level, RIP",105.6%
same,"rel. Protein level, RPA32",98.4%
same,"rel. Protein level, RPA32_pS4-S8",102.8%
same,"rel. Protein level, RSK",99.0%
same,"rel. Protein level, Rab11",102.8%
same,"rel. Protein level, Rab25",100.2%
same,"rel. Protein level, Rad50",103.9%
same,"rel. Protein level, Rad51",89.6%
same,"rel. Protein level, Raptor",103.3%
same,"rel. Protein level, Rb",106.3%
same,"rel. Protein level, Rb_pS807_S811",92.3%
same,"rel. Protein level, Rheb",103.3%
same,"rel. Protein level, Rictor",126.9%
same,"rel. Protein level, Rictor_pT1135",92.3%
same,"rel. Protein level, S6",112.2%
same,"rel. Protein level, S6_pS235_S236",57.3%
same,"rel. Protein level, S6_pS240_S244",51.9%
same,"rel. Protein level, b-Actin",97.4%
same,"rel. Protein level, b-Catenin",108.4%
same,"rel. Protein level, b-Catenin_pT41_S45",96.8%
same,"rel. Protein level, c-Abl",95.2%
same,"rel. Protein level, c-IAP2",100.4%
same,"rel. Protein level, c-Jun_pS73",92.3%
same,"rel. Protein level, c-Kit",100.1%
same,"rel. Protein level, c-Met_pY1234_Y1235",101.1%
same,"rel. Protein level, c-Myc",89.2%
same,"rel. Protein level, cdc2_pY15",92.3%
